This is an account of results in patent US8791108B2, “Inhibitors of human immunodeficiency virus replication” (priority 2011, dated 2014).

SMILES strings stand for the structures. pEC50: −log10 of the molar value. Where only a bound is given, the exact number is not on record here.

One assay relates to recombinant NL-Rluc virus. Nature of the assay: Inhibition of HIV replication (NL-RLuc luciferase reporter virus, MT-2 cells). The class given is cell-based. To be noted: Human immunodeficiency virus 1, MT2, 120 h, read-out: Activity. A general note: A reporter such as luciferase makes a cellular process visible.
Turning to `Cc1nc2cc(C(=O)NCc3ncc(F)cc3F)nn2c(-c2cc(F)c3c(c2C)CCCO3)c1[C@H](OC(C)(C)C)C(=O)O` [Example 36, (2S)-2-(tert-butoxy)-2-(2-(((3,5-difluoropyridin-2-yl)methyl)carbamoyl)-7-(8-fluoro-5-methylchroman-6-yl)-5-methylpyrazolo[1,5-a]pyrimidin-6-yl)acetic acid], the pEC50 is 6.00 to 7.00.

Regarding `Cc1nc2cc(C(=O)N(C)CCCn3ccnc3)nn2c(-c2cc(F)c3c(c2C)CCCO3)c1[C@H](OC(C)(C)C)C(=O)O` [Example 37, (2S)-2-(2-((3-(1H-imidazol-1-yl)propyl)(methyl)carbamoyl)-7-(8-fluoro-5-methylchroman-6-yl)-5-methylpyrazolo[1,5-a]pyrimidin-6-yl)-2-(tert-butoxy)acetic acid], the pEC50 is less than 6.00. Still for that read-out and setting: under `Cc1nc2cc(C(=O)NCc3ccco3)nn2c(-c2cc(F)c3c(c2C)CCCO3)c1[C@H](OC(C)(C)C)C(=O)O` [Example 38, (2S)-2-(tert-butoxy)-2-(7-(8-fluoro-5-methylchroman-6-yl)-2-((furan-2-ylmethyl)carbamoyl)-5-methylpyrazolo[1,5-a]pyrimidin-6-yl)acetic acid] stands 6.00 to 7.00.

For the compound `Cc1nc2cc(C(=O)NC(C)c3ccccc3)nn2c(-c2cc(F)c3c(c2C)CCCO3)c1[C@H](OC(C)(C)C)C(=O)O` (stereo partly shown) [Example 39], the pEC50 is greater than 7.00.

Regarding `Cc1nc2cc(C(=O)NCc3ccccc3Cl)nn2c(-c2cc(F)c3c(c2C)CCCO3)c1[C@H](OC(C)(C)C)C(=O)O` [Example 40, (2S)-2-(tert-butoxy)-2-(2-((2-chlorobenzyl)carbamoyl)-7-(8-fluoro-5-methylchroman-6-yl)-5-methylpyrazolo[1,5-a]pyrimidin-6-yl)acetic acid], the pEC50 is greater than 7.00.

Consider `COc1ccc(CNC(=O)c2cc3nc(C)c([C@H](OC(C)(C)C)C(=O)O)c(-c4cc(F)c5c(c4C)CCCO5)n3n2)cc1OC` [Example 41, (2S)-2-(tert-butoxy)-2-(2-((3,4-dimethoxybenzyl)carbamoyl)-7-(8-fluoro-5-methylchroman-6-yl)-5-methylpyrazolo[1,5-a]pyrimidin-6-yl)acetic acid], for which the pEC50 was 6.00 to 7.00. For `COc1ccccc1CNC(=O)c1cc2nc(C)c([C@H](OC(C)(C)C)C(=O)O)c(-c3cc(F)c4c(c3C)CCCO4)n2n1` [Example 42, (2S)-2-(tert-butoxy)-2-(7-(8-fluoro-5-methylchroman-6-yl)-2-((2-methoxybenzyl)carbamoyl)-5-methylpyrazolo[1,5-a]pyrimidin-6-yl)acetic acid], the pEC50 is greater than 7.00. On the same count and under the same terms, under `Cc1nc2cc(C(=O)NCC3CC3)nn2c(-c2cc(F)c3c(c2C)CCCO3)c1[C@H](OC(C)(C)C)C(=O)O` [Example 43, (2S)-2-(tert-butoxy)-2-(2-((cyclopropylmethyl)carbamoyl)-7-(8-fluoro-5-methylchroman-6-yl)-5-methylpyrazolo[1,5-a]pyrimidin-6-yl)acetic acid] stands 6.00 to 7.00; under `Cc1nc2cc(C(=O)NCc3ccc(OC(F)(F)F)cc3)nn2c(-c2cc(F)c3c(c2C)CCCO3)c1[C@H](OC(C)(C)C)C(=O)O` [Example 44, (2S)-2-(tert-butoxy)-2-(7-(8-fluoro-5-methylchroman-6-yl)-5-methyl-2-((4-(trifluoromethoxy)benzyl)carbamoyl)pyrazolo[1,5-a]pyrimidin-6-yl)acetic acid], greater than 7.00; under `Cc1nc2cc(C(=O)NCc3csc(-c4ccccc4)n3)nn2c(-c2cc(F)c3c(c2C)CCCO3)c1[C@H](OC(C)(C)C)C(=O)O` [Example 45, (2S)-2-(tert-butoxy)-2-(7-(8-fluoro-5-methylchroman-6-yl)-5-methyl-2-(((2-phenylthiazol-4-yl)methyl)carbamoyl)pyrazolo[1,5-a]pyrimidin-6-yl)acetic acid], greater than 7.00.

In the case of `Cc1nc2cc(C(=O)NCc3ccc(Cl)cc3)nn2c(-c2cc(F)c3c(c2C)CCCO3)c1[C@H](OC(C)(C)C)C(=O)O` [Example 46, (2S)-2-(tert-butoxy)-2-(2((4-chlorobenzyl)carbamoyl)-7-(8-fluoro-5-methylchroman-6-yl)-5-methylpyrazolo[1,5-a]pyrimidin-6-yl)acetic acid], the pEC50 was greater than 7.00.

As to `Cc1nc2cc(C(=O)NCCNc3ccccc3)nn2c(-c2cc(F)c3c(c2C)CCCO3)c1[C@H](OC(C)(C)C)C(=O)O` [Example 47, (2S)-2-(tert-butoxy)-2-(7-(8-fluoro-5-methylchroman-6-yl)-5-methyl-2-((2-(phenylamino)ethyl)carbamoyl)pyrazolo[1,5-a]pyrimidin-6-yl)acetic acid], the pEC50 was 6.00 to 7.00. Consider `Cc1nc2cc(C(=O)NCCc3ccccc3)nn2c(-c2cc(F)c3c(c2C)CCCO3)c1[C@H](OC(C)(C)C)C(=O)O` [Example 48, (2S)-2-(tert-butoxy)-2-(7-(8-fluoro-5-methylchroman-6-yl)-5-methyl-2-(phenethylcarbamoyl)pyrazolo[1,5-a]pyrimidin-6-yl)acetic acid], for which the pEC50 is greater than 7.00. As for `Cc1nc2cc(C(=O)NCCC(C)C)nn2c(-c2cc(F)c3c(c2C)CCCO3)c1[C@H](OC(C)(C)C)C(=O)O` [Example 49, (2S)-2-(tert-butoxy)-2-(7-(8-fluoro-5-methylchroman-6-yl)-2-(isopentylcarbamoyl)-5-methylpyrazolo[1,5-a]pyrimidin-6-yl)acetic acid], the pEC50 is greater than 7.00. For `Cc1nc2cc(C(=O)NCCCc3ccccc3)nn2c(-c2cc(F)c3c(c2C)CCCO3)c1[C@H](OC(C)(C)C)C(=O)O` [Example 50], the pEC50 is greater than 7.00. With `Cc1nc2cc(C(=O)NCCCn3ccnc3)nn2c(-c2cc(F)c3c(c2C)CCCO3)c1[C@H](OC(C)(C)C)C(=O)O` [Example 51], the pEC50 is less than 6.00. As for `Cc1nc2cc(C(=O)NCc3ccc(N(C)C)cc3)nn2c(-c2cc(F)c3c(c2C)CCCO3)c1[C@H](OC(C)(C)C)C(=O)O` [Example 52, (2S)-2-(tert-butoxy)-2-(2-((4-(dimethylamino)benzyl)carbamoyl)-7-(8-fluoro-5-methylchroman-6-yl)-5-methylpyrazolo[1,5-a]pyrimidin-6-yl)acetic acid], the pEC50 was greater than 7.00. In the case of `Cc1nc2cc(C(=O)NCc3ccc(S(N)(=O)=O)cc3)nn2c(-c2cc(F)c3c(c2C)CCCO3)c1[C@H](OC(C)(C)C)C(=O)O` [Example 53, (2S)-2-(tert-butoxy)-2-(7-(8-fluoro-5-methylchroman-6-yl)-5-methyl-2-((4-sulfamoylbenzyl)carbamoyl)pyrazolo[1,5-a]pyrimidin-6-yl)acetic acid], the pEC50 was less than 6.00. Take `Cc1nc2cc(C(=O)NCc3cccc(Cl)c3)nn2c(-c2cc(F)c3c(c2C)CCCO3)c1[C@H](OC(C)(C)C)C(=O)O` [Example 54, (2S)-2-(tert-butoxy)-2-(2((3-chlorobenzyl)carbamoyl)-7-(8-fluoro-5-methylchroman-6-yl)-5-methylpyrazolo[1,5-a]pyrimidin-6-yl)acetic acid]: the pEC50 was greater than 7.00. As for `Cc1nc2cc(C(=O)NCCOc3ccccc3)nn2c(-c2cc(F)c3c(c2C)CCCO3)c1[C@H](OC(C)(C)C)C(=O)O` [Example 55, (2S)-2-(tert-butoxy)-2-(7-(8-fluoro-5-methylchroman-6-yl)-5-methyl-2-((2-phenoxyethyl)carbamoyl)pyrazolo[1,5-a]pyrimidin-6-yl)acetic acid], the pEC50 was greater than 7.00. Same read-out and setting: for `Cc1nc2cc(C(=O)N[C@H]3C[C@@H]3c3ccccc3)nn2c(-c2cc(F)c3c(c2C)CCCO3)c1[C@H](OC(C)(C)C)C(=O)O` [Example 56, (2S)-2-(tert-butoxy)-2-(7-(8-fluoro-5-methylchroman-6-yl)-5-methyl-2-(((1S,2R)-2-phenylcyclopropyl)carbamoyl)pyrazolo[1,5-a]pyrimidin-6-yl)acetic acid] the value was greater than 7.00. As to `Cc1nc2cc(C(=O)NCCc3ccc(F)cc3)nn2c(-c2cc(F)c3c(c2C)CCCO3)c1[C@H](OC(C)(C)C)C(=O)O` [Example 57, (2S)-2-(tert-butoxy)-2-(7-(8-fluoro-5-methylchroman-6-yl)-2-((4-fluorophenethyl)carbamoyl)-5-methylpyrazolo[1,5-a]pyrimidin-6-yl)acetic acid], the pEC50 is greater than 7.00. With `Cc1nc2cc(C(=O)NCC3CCN(C(=O)C4CC4)CC3)nn2c(-c2cc(F)c3c(c2C)CCCO3)c1[C@H](OC(C)(C)C)C(=O)O` [Example 58, (2S)-2-(tert-butoxy)-2-(2-(((1-(cyclopropanecarbonyl)piperidin-4-yl)methyl)carbamoyl)-7-(8-fluoro-5-methylchroman-6-yl)-5-methylpyrazolo[1,5-a]pyrimidin-6-yl)acetic acid], the pEC50 is less than 6.00.

For the compound `Cc1nc2cc(C(=O)NCC3CCN(C(=O)OC(C)(C)C)CC3)nn2c(-c2cc(F)c3c(c2C)CCCO3)c1[C@H](OC(C)(C)C)C(=O)O` [Example 59, (2S)-2-(tert-butoxy)-2-(2-(((1-(tert-butoxycarbonyl)piperidin-4-yl)methyl)carbamoyl)-7-(8-fluoro-5-methylchroman-6-yl)-5-methylpyrazolo[1,5-a]pyrimidin-6-yl)acetic acid], the pEC50 is 6.00 to 7.00. Take `Cc1ccc(CNC(=O)c2cc3nc(C)c([C@H](OC(C)(C)C)C(=O)O)c(-c4cc(F)c5c(c4C)CCCO5)n3n2)cc1F` [Example 60, (2S)-2-(tert-butoxy)-2-(2-((3-fluoro-4-methylbenzyl)carbamoyl)-7-(8-fluoro-5-methylchroman-6-yl)-5-methylpyrazolo[1,5-a]pyrimidin-6-yl)acetic acid]: the pEC50 was greater than 7.00. For `Cc1nc2cc(C(=O)NCc3cccnc3)nn2c(-c2cc(F)c3c(c2C)CCCO3)c1[C@H](OC(C)(C)C)C(=O)O` [Example 61, (2S)-2-(tert-butoxy)-2-(7-(8-fluoro-5-methylchroman-6-yl)-5-methyl-2-((pyridin-3-ylmethyl)carbamoyl)pyrazolo[1,5-a]pyrimidin-6-yl)acetic acid], the pEC50 was less than 6.00.

Still in this assay, the particulars now being: Human immunodeficiency virus 1, MT2, 120 h, read-out: EC50 μM.
Regarding `Cc1nc2cc(C(=O)NCc3ncc(F)cc3F)nn2c(-c2cc(F)c3c(c2C)CCCO3)c1[C@H](OC(C)(C)C)C(=O)O` [Example 36, (2S)-2-(tert-butoxy)-2-(2-(((3,5-difluoropyridin-2-yl)methyl)carbamoyl)-7-(8-fluoro-5-methylchroman-6-yl)-5-methylpyrazolo[1,5-a]pyrimidin-6-yl)acetic acid], the EC50 turned out to be 0.255 µM. Still for that read-out and setting: for `Cc1nc2cc(C(=O)N(C)CCCn3ccnc3)nn2c(-c2cc(F)c3c(c2C)CCCO3)c1[C@H](OC(C)(C)C)C(=O)O` [Example 37, (2S)-2-(2-((3-(1H-imidazol-1-yl)propyl)(methyl)carbamoyl)-7-(8-fluoro-5-methylchroman-6-yl)-5-methylpyrazolo[1,5-a]pyrimidin-6-yl)-2-(tert-butoxy)acetic acid] the value was 20 µM; for `Cc1nc2cc(C(=O)NCc3ccco3)nn2c(-c2cc(F)c3c(c2C)CCCO3)c1[C@H](OC(C)(C)C)C(=O)O` [Example 38, (2S)-2-(tert-butoxy)-2-(7-(8-fluoro-5-methylchroman-6-yl)-2-((furan-2-ylmethyl)carbamoyl)-5-methylpyrazolo[1,5-a]pyrimidin-6-yl)acetic acid], 0.167 µM. As to `Cc1nc2cc(C(=O)NCCNc3ccccc3)nn2c(-c2cc(F)c3c(c2C)CCCO3)c1[C@H](OC(C)(C)C)C(=O)O` [Example 47, (2S)-2-(tert-butoxy)-2-(7-(8-fluoro-5-methylchroman-6-yl)-5-methyl-2-((2-(phenylamino)ethyl)carbamoyl)pyrazolo[1,5-a]pyrimidin-6-yl)acetic acid], the half-maximal effective concentration (EC50) is 0.281 µM. For the compound `Cc1nc2cc(C(=O)NCc3ccc(S(N)(=O)=O)cc3)nn2c(-c2cc(F)c3c(c2C)CCCO3)c1[C@H](OC(C)(C)C)C(=O)O` [Example 53, (2S)-2-(tert-butoxy)-2-(7-(8-fluoro-5-methylchroman-6-yl)-5-methyl-2-((4-sulfamoylbenzyl)carbamoyl)pyrazolo[1,5-a]pyrimidin-6-yl)acetic acid], the EC50 worked out at 3.19 µM.

Usually EC50 stands for the concentration at which the effect is half-maximal.
